Experimental data published in US7455996B2, “Soybean raffinose synthase and a method for producing raffinose” (priority 1996, dated 2008).

B1: raffinose synthase: raffinose synthase purified from cucumber leaf vein tissues, amino acid sequence SEQ ID NO: 5 (protein, listed as Cucumis sativus)
chain: MAPSFKNGGSNVVSFDGLNDMSSPFAIDGSDFTVNGHSFLSDVPENIVASPSPYTSIDKSPVSVGCFVGFDASEPDSRHVVSIGKLKDIRFMSIFRFKVWWTTHWVGRNGGDLESETQIVILEKSDSGRPYVFLLPIVEGPFRTSIQPGDDDFVDVCVESGSSKVVDASFRSMLYLHAGDDPFALVKEAMKIVRTHLGTFRLLEEKTPPGIVDKFGWCTWDAFYLTVHPQGVIEGVRHLVDGGCPPGLVLIDDGWQSIGHDSDPITKEGMNQTVAGEQMPCRLLKFQENYKFRDYVNPKATGPRAGQKGMKAFIDELKGEFKTVEHVYVWHALCGYWGGLRPQVPGLPEARVIQPVLSPGLQMTMEDLAVDKIVLHKVGLVPPEKAEEMYEGLHAHLEKVGIDGVKIDVIHLLEMLCEDYGGRVDLAKAYYKAMTKSINKHFKGNGVIASMEHCNDFMFLGTEAISLGRVGDDFWCTDPSGDPNGTFWLQGCHMVHCANDSLWMGNFIHPDWDMFQSTHPCAAFHAASRAISGGPIYVSDSVGKHNFDLLKKLVLPDGSILRSEYYALPTRDCLFEDPLHNGETMLKIWNLNKFTGVIGAFNCQGGGWCRETRRNQCFSQYSKRVTSKTNPKDIEWHSGENPISIEGVKTFALYLYQAKKLILSKPSQDLDIALDPFEFELITVSPVTKLIQTSLHFAPIGLVNMLNTSGAIQSVDYDDDLSSVEIGVKGCGEMRVFASKKPRACRIDGEDVGFKYDQDQMVVVQVPWPIDSSSGGISVIEYLF

Key:
raffinose synthase [1] = experiment: raffinose synthase activity with enzyme inhibitors or metal ions added; type: biochemical, cucumber; details: final concentration of 1 mM; for Remaining activity (%): with respect to activity when neither inhibitor nor metal ion was added
Protocol: (§1) The activity of the raffinose synthase was measured by quantitatively determining raffinose produced by the raffinose synthesis reaction by using HPLC (high-performance liquid chromatography). HPLC was performed by using Sugar Analysis System DX500 (CarboPac PA1column, pulsed amperometry detector (produced by DIONEX)).
(§2) For the raffinose synthesis reaction, to a reaction solution prepared to have a composition having the following final concentrations, 10 to 50 μl of a raffinose synthase solution was added to give a volume of 100 μl followed by performing the reaction at 32° C. for 60 minutes.
(§3) After performing the reaction as described above, the reaction was stopped by adding to the reaction solution, ethanol in a volume four times the volume of the reaction solution and heating the solution at 95° C. for 30 seconds. The obtained solution was centrifuged to obtain a supernatant and the supernatant was then dried up under a reduced pressure. After that, an obtained residue was dissolved in distilled water. Raffinose in the reaction product was quantitatively determined by using the sugar analysis system to estimate the raffinose synthase activity.
Various enzyme inhibitors or metal ions were added to the reaction solution of the purified raffinose synthase to give a final concentration of 1 mM respectively, and the raffinose synthase activity was measured in the same manner as described above.

raffinose synthase [2] = experiment: inhibition of raffinose synthase activity by myo-inositol; type: biochemical, cucumber; details: myo-inositol added at various concentrations (FIG. 5)
Protocol: as §1, §2, §3
Investigation was made for inhibition by myo-inositol as the reaction product of the raffinose synthesis reaction. To the reaction solution, myo-inositol was added at various concentrations, and the raffinose synthase activity was measured. […]

[3] = optimum reaction pH of raffinose synthase; type: biochemical, cucumber; details: pH 4 to 11, various buffers
Protocol: as §1, §2, §3
The raffinose synthase activity was measured under various pH conditions (pH 4 to 11) in accordance with the method for measuring the raffinose synthase activity described above. […]

[4] = optimum reaction temperature of raffinose synthase; type: biochemical, cucumber; details: measured at 28 to 52° C.
Protocol: as §1, §2, §3
The raffinose synthase activity was measured under various temperature conditions (28° C., 32° C., 36° C., 40° C., 44° C., 48° C., and 52° C.) in accordance with the method for measuring the raffinose synthase activity described above. […]

[5] = raffinose synthase activity of purification fractions (HPLC determination of raffinose); type: biochemical, cucumber; details: purified active fraction after hydroxyapatite rechromatography
Protocol: as §1, §2, §3
The amount of protein contained in the active fraction was about 200 μg. The total activity was 5700 nmol/hour, and the specific activity per protein was about 28 μmol/hour/mg. […]

[6] = stable pH of raffinose synthase; type: physicochemical, cucumber; details: fraction from anion exchange chromatography (2); incubated 4 hours at 4° C.
Protocol: The raffinose synthase fraction obtained by the anion exchange chromatography (2) described above was incubated for 4 hours at 4° C. in 50 mM Bis-Tris-HCl buffer (pH 5 to 8.0, containing 0.5 mM DTT) or 20 mM Tris-HCl buffer (pH 7 to 8.0, containing 0.5 mM DTT), and then the raffinose synthase activity was measured. […] The raffinose synthase activity was confirmed after the incubation under any of the incubation conditions. Especially, the enzyme was stable in a range of pH 5 to 7.5.

[7] = stable temperature of raffinose synthase; type: physicochemical, cucumber; details: fraction from anion exchange chromatography (2); 60 minutes at 28° C. to 40° C., pH 7
Protocol: The raffinose synthase fraction obtained by the anion exchange chromatography (2) described above was incubated in 20 mM Tris-HCl buffer (pH 7, containing 0.5 mM DTT) for 60 minutes at 28° C., 32° C., 37° C., or 40° C., and then the raffinose synthase activity was measured.

Molecule	inhibiting effect on the enzyme activity (raffinose synthase [1])	Remaining activity (%) (raffinose synthase [1])	further results
[Ca+2].[Cl-].[Cl-] [CaCl2]	scarcely observed	115%	–
[Cl][Cu][Cl] [CuCl2]	scarcely observed	101%	–
NC(=O)CI [Iodoacetoamide, Iodoacetamide]	remarkably inhibited	0%	–
[Cl-].[Cl-].[Mg+2] [MgCl2]	scarcely observed	96%	–
[Cl][Mn][Cl] [MnCl2]	exhibited the inhibiting effect	32%	–
CCN1C(=O)C=CC1=O [N-ethylmaleimide]	remarkably inhibited	40%	–
[Cl][Ni][Cl] [NiCl2]	exhibited the inhibiting effect	68%	–
[Cl-].[Cl-].[Zn+2] [ZnCl2]	exhibited the inhibiting effect	42%	–
O[C@H]1[C@H](O)[C@@H](O)[C@H](O)[C@@H](O)[C@H]1O [myo-inositol]	–	–	inhibition of the enzyme activity by myo-inositol (raffinose synthase [2]): inhibited
B1	–	–	optimum reaction pH [3]: 6 to 8 pH; pH range in which activity was exhibited [3]: 5 to 10 pH; optimum reaction temperature [4]: 35 to 40 °C; temperature range in which activity was exhibited [4]: 25 to 42 °C; specific activity per protein [5]: about 28 μmol/hour/mg; stable pH range [6]: 5 to 7.5 pH; activity after incubation relative to non-incubated control [7]: 80% to 100
